Measurements reported in ChEMBL document CHEMBL3351827, “Design, synthesis and evaluation of novel 5-phenylpyridin-2(1H)-one derivatives as potent reversible Bruton's tyrosine kinase inhibitors” (Bioorg Med Chem, 2015).
Active and inactive are the calls of the source. No cut-off for these calls is given here.

Assays:
[1] = target: T1, Tyrosine-protein kinase BTK (Homo sapiens, UniProt Q06187); assay: Inhibition of BTK (unknown origin) using biotin-labeled peptide substrate incubated for 1 hr by TR-FRET based HTRF kinase assay
T1 sequence (Q06187 whole entry): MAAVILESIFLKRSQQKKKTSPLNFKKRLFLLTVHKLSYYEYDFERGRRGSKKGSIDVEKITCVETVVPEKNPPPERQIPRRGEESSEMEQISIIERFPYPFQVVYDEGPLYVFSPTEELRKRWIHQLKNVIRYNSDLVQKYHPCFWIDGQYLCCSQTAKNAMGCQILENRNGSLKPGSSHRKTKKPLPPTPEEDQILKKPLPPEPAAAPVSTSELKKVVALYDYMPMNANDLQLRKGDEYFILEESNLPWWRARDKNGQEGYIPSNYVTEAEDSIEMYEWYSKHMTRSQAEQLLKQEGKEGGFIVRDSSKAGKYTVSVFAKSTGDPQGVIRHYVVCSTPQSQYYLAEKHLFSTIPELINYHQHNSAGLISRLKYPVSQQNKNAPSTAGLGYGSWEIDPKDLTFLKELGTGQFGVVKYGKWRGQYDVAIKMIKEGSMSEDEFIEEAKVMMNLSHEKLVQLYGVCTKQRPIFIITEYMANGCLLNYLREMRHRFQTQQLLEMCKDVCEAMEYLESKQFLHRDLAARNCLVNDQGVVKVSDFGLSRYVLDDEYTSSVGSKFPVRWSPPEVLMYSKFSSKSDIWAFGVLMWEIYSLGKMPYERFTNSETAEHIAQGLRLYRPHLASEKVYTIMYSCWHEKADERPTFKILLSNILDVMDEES

[2] = target: T1, Tyrosine-protein kinase BTK; assay: Inhibition of BTK in human Ramos cells assessed as reduction in IgM-induced calcium influx incubated for 20 mins by Fluo-4 dye based fluorescence assay; assay type: cell-based
[3] = Cmax in Sprague-Dawley rat at 1 mg/kg, iv measured during 2 mins to 24 hrs period post dose by LC/MS/MS method; assay type: ADME, organism-based; design: dose 1 mg/kg, route intravenous; conditions: in vivo
[4] = test system: Rattus norvegicus; assay: Apparent volume of distribution in Sprague-Dawley rat at 2 mg/kg, po measured during 2 mins to 24 hrs period post dose by LC/MS/MS method; assay type: ADME, organism-based; design: dose 2 mg/kg, route oral; conditions: in vivo
[5] = AUC in Sprague-Dawley rat at 1 mg/kg, iv measured during 2 mins to 24 hrs period post dose by LC/MS/MS method; assay type: ADME, organism-based; design: time 0.033-24 hr, dose 1 mg/kg, route intravenous; conditions: plasma
[6] = species: Rattus norvegicus; conditions: Wistar, 6 mg/kg
Description: Inhibition of collagen-induced arthritis in Wistar rat assessed as reduction in disease progression at 6 mg/kg, po dosed for 13 days starting from day 14 post collagen challenge

[7] = Clearance in Sprague-Dawley rat at 1 mg/kg, iv measured during 2 mins to 24 hrs period post dose by LC/MS/MS method; assay type: ADME, organism-based; design: dose 1 mg/kg, route intravenous; conditions: in vivo
[8] = Oral bioavailability in Sprague-Dawley rat at 2 mg/kg measured during 2 mins to 24 hrs period post dose by LC/MS/MS method; assay type: ADME, organism-based; conditions: in vivo
[9] = Clearance in Sprague-Dawley rat at 2 mg/kg, po measured during 2 mins to 24 hrs period post dose by LC/MS/MS method; assay type: ADME, organism-based; design: dose 2 mg/kg, route oral; conditions: in vivo
[10] = test system: Rattus norvegicus; assay: Toxicity in Wistar rat model of collagen-induced arthritis assessed reduction in body weight at 6 and 20 mg/kg, po dosed for 13 days starting from day 14 post collagen challenge; assay type: organism-based; design: dose 20 mg/kg, route oral; conditions: in vivo, 312 h
[11] = test system: Rattus norvegicus; assay: Inhibition of collagen-induced arthritis in Wistar rat assessed as reduction in disease progression at 20 mg/kg, po dosed for 13 days starting from day 14 post collagen challenge; assay type: functional, organism-based; design: dose 20 mg/kg
[12] = AUC in Sprague-Dawley rat at 2 mg/kg, po measured during 2 mins to 24 hrs period post dose by LC/MS/MS method; assay type: ADME, organism-based; design: time upper 24 hr, time lower 0.033 hr, dose 2 mg/kg, route oral; conditions: plasma
[13] = Half life in Sprague-Dawley rat at 1 mg/kg, iv measured during 2 mins to 24 hrs period post dose by LC/MS/MS method; assay type: ADME, organism-based; design: dose 1 mg/kg, route intravenous; conditions: in vivo
[14] = Half life in Sprague-Dawley rat at 2 mg/kg, po measured during 2 mins to 24 hrs period post dose by LC/MS/MS method; assay type: ADME, organism-based; design: dose 2 mg/kg, route oral; conditions: in vivo
[15] = Mean residence time (0 to t) in Sprague-Dawley rat at 2 mg/kg, po measured during 2 mins to 24 hrs period post dose by LC/MS/MS method; assay type: ADME, organism-based; design: dose 2 mg/kg, route oral; conditions: in vivo
[16] = Mean residence time (0 to t) in Sprague-Dawley rat at 1 mg/kg, iv measured during 2 mins to 24 hrs period post dose by LC/MS/MS method; assay type: ADME, organism-based; design: dose 1 mg/kg, route intravenous; conditions: in vivo
[17] = Apparent volume of distribution in Sprague-Dawley rat at 1 mg/kg, iv measured during 2 mins to 24 hrs period post dose by LC/MS/MS method; assay type: ADME, organism-based; design: dose 1 mg/kg, route intravenous; conditions: in vivo, read-out: Vz
[18] = Cmax in Sprague-Dawley rat at 2 mg/kg, po measured during 2 mins to 24 hrs period post dose by LC/MS/MS method; assay type: ADME, organism-based; design: dose 2 mg/kg, route oral; conditions: in vivo

Cn1cc(-c2cccc(-n3ccc4cc(C5CC5)cc(F)c4c3=O)c2CO)cc(Nc2ccc(N3CCN(C(=O)C4CC4)CC3)cn2)c1=O gave an IC50 [1] of 28 nM and an IC50 [2] of 4360 nM.
For CN1CCN(c2ccc(Nc3cc(-c4cccc(-n5ccc6nc(C7CC7)ccc6c5=O)c4CO)cn(C)c3=O)nc2)CC1, the IC50 [1] was 564 nM and the IC50 [2] was 3250 nM.
For Cn1cc(-c2cccc(-n3ccc4cc(C5CC5)cc(F)c4c3=O)c2CO)cc(Nc2ccc(N3CCN(C4COC4)CC3)cn2)c1=O, the Cmax [3] was 1090 ng/mL, the Vz [4] was 13.4 L/kg and the AUC [5] was 1670 ng·h/mL. For the same compound, the IC50 [1] was 16 nM, the inhibition [6] was “Active” and the IC50 [2] was 8 nM. It also gave a clearance [7] of 7.83 mL/min/kg, a bioavailability [8] of 58.4% and a CL/F [9] of 13.5 mL/min/kg. The Activity [10] was “Non-toxic”, the inhibition [11] was “Active” and the AUC [12] was 1950 ng·h/mL. For the same compound, the half-life [13] was 13.6 h, the half-life [14] was 11.5 h and the MRT last [15] was 8.78 h. It also gave an MRT last [16] of 6.48 h, a Vd [17] of 9.28 L/kg and a Cmax [18] of 170 ng/mL.
Work on CN1CC(N2CCN(c3ccc(Nc4cc(-c5cccc(-n6ccc7cc(C8CC8)cc(F)c7c6=O)c5CO)cn(C)c4=O)nc3)CC2)C1 yielded an IC50 [1] of 9 nM and an IC50 [2] of 33 nM.
With Cc1c(NC(=O)c2ccc(C(C)(C)C)cc2)cccc1-c1cc(Nc2ccc(N3CCN(C)CC3)cn2)c(=O)n(C)c1 the IC50 [1] was 875 nM and the IC50 [2] was > 5000 nM.
For CN1CCN(c2ccc(Nc3cc(-c4cccc(-n5ccc6ccccc6c5=O)c4CO)cn(C)c3=O)nc2)CC1, the IC50 [1] was 1030 nM.
Cc1c(-c2cc(Nc3ccc(N4CCN(C)CC4)cn3)c(=O)n(C)c2)cccc1-n1ccc2cc(C3CC3)cc(F)c2c1=O gave an IC50 [1] of 365 nM and an IC50 [2] of 254 nM.
Compound CN1CCN(c2ccc(Nc3cc(-c4cccc(-n5ccc6cc(C7CC7)ccc6c5=O)c4CO)cn(C)c3=O)nc2)CC1 has an IC50 [1] of 37 nM and an IC50 [2] of 115 nM.
In the case of CN1CCN(c2ccc(CNc3cc(-c4cccc(-n5ccc6cc(C7CC7)cc(F)c6c5=O)c4CO)cn(C)c3=O)cc2)CC1, the IC50 [1] is reported as > 5000 nM.
With CN1CCN(c2ccc(Nc3cc(-c4cccc(-n5ccc6cc(C7CC7)ncc6c5=O)c4CO)cn(C)c3=O)nc2)CC1 the IC50 [1] was 255 nM and the IC50 [2] was 124 nM.
With Cc1c(Nc2ncnc3ccccc23)cccc1-c1c[nH]c(=O)c(Nc2ccc(N3CCN(C)CC3)cn2)c1C the IC50 [1] was > 5000 nM.
With CN1CCN(c2ccc(Nc3cc(-c4cccc(-n5ccc6cc(C7CC7)cc(F)c6c5=O)c4)cn(C)c3=O)nc2)CC1 the IC50 [1] was 503 nM and the IC50 [2] was 472 nM.
For Cc1c(-c2cc(Nc3ccc(N4CCN(C)CC4)cn3)c(=O)n(C)c2)cccc1N1C(=O)c2ccc(C(C)(C)C)cc2C1=O, the IC50 [1] was > 5000 nM.
CN1CCN(c2ccc(Nc3cc(-c4cccc(-n5ccc6cc(C7CC7)cc(F)c6c5=O)c4CO)cn(C)c3=O)nc2)CC1 gave a Cmax [3] of 220 ng/mL, a Vz [4] of 86.69 L/kg and an AUC [5] of 404 ng·h/mL. For the same compound, the clearance [7] was 41.2 mL/min/kg, the bioavailability [8] was 49.9% and the CL/F [9] was 84.5 mL/min/kg. The inhibition [11] was “Active”, the AUC [12] was 403 ng·h/mL and the half-life [13] was 14.1 h. For the same compound, the half-life [14] was 11.5 h, the MRT last [15] was 9.31 h and the MRT last [16] was 6.56 h. It also gave a Vd [17] of 50.5 L/kg and a Cmax [18] of 34.8 ng/mL.
With Cc1c(-c2cc(Nc3ccc(N4CCN(C5COC5)CC4)cn3)c(=O)n(C)c2)cccc1-n1ccc2cc(C3CC3)cc(F)c2c1=O the IC50 [1] was 203 nM and the IC50 [2] was 171 nM.
For Cc1c(-c2cc(Nc3ccc(N4CCN(C)CC4)cn3)c(=O)n(C)c2)cccc1-c1nc2cc(C(C)(C)C)ccc2[nH]1, the IC50 [1] was > 5000 nM.
CN1CCN(c2ccc(Nc3cc(-c4cccc(-n5ccc6cc(N(C)C)ncc6c5=O)c4CO)cn(C)c3=O)nc2)CC1 gave an IC50 [1] of 431 nM and an IC50 [2] of 1030 nM.
In the case of CN1CCN(c2ccc(C(=O)Nc3cc(-c4cccc(-n5ccc6cc(C7CC7)cc(F)c6c5=O)c4CO)cn(C)c3=O)cc2)CC1, the IC50 [1] is reported as 818 nM and the IC50 [2] is reported as > 5000 nM.
Cn1cc(-c2cccc(-n3ccc4cc(C5CC5)cc(F)c4c3=O)c2CO)cc(Nc2ccc(C3CCN(C4COC4)CC3)cn2)c1=O gave an IC50 [1] of 20 nM and an IC50 [2] of 21 nM.
